The experiment has as its target dihydroorotate dehydrogenase (DHODH) (Homo sapiens, UniProt Q02127). Briefly: colorimetric DCIP reduction enzyme assay ([…] DHODH, L-DHO, coenzyme Q10). Format: biochemical.

The term IC50 denotes the midpoint of a concentration-inhibition curve. A higher IC50 goes with lower potency.

dihydroorotate dehydrogenase (DHODH), sequence (Q02127 whole entry): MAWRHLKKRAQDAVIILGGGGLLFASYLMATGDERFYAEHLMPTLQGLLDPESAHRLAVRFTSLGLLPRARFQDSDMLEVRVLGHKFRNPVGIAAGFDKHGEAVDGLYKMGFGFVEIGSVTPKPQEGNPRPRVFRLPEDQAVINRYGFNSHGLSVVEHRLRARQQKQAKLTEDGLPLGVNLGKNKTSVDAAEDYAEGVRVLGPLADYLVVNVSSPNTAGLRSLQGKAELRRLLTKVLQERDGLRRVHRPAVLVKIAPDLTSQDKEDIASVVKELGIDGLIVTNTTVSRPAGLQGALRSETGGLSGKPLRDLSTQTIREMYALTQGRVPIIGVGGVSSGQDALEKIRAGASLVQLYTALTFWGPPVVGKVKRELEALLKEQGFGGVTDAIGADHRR

In turn, `C/C(O)=C(\C#N)C(=O)Nc1cc(C(F)(F)F)cc(C(F)(F)F)c1` [di-CF3-TF] returned an IC50 of 1.32 µM.

As for `C/C(O)=C(\C#N)C(=O)Nc1ccc(S(F)(F)(F)(F)F)cc1` [SF5-TF], 0.58 µM corresponded to half-maximal inhibition (IC50).

Take `C/C(O)=C(\C#N)C(=O)Nc1ccc(OC(F)(F)F)cc1` [CF3O-TF]: the IC50 stood at 0.33 µM.
